Source: patent publication US20210052632A1, “SELECTIVE PARP1 INHIBITORS TO TREAT CANCER” (Cambridge Enterprise Limited, priority 2018, published 2021)
Where two headings read alike, the source gives them in different places.

How the values were obtained:
[1] = molecular target: T1, human full length active PARP1 (Homo sapiens, UniProt P09874); assay: PARP inhibitor assay, fluorescence-based (PARP1 Enzyme Activity Assay kit), PARP1; format: biochemical
T1 construct: human full length active PARP1 (CS207770, Merck); purchased Merck CS207770
T1 sequence (P09874 whole entry): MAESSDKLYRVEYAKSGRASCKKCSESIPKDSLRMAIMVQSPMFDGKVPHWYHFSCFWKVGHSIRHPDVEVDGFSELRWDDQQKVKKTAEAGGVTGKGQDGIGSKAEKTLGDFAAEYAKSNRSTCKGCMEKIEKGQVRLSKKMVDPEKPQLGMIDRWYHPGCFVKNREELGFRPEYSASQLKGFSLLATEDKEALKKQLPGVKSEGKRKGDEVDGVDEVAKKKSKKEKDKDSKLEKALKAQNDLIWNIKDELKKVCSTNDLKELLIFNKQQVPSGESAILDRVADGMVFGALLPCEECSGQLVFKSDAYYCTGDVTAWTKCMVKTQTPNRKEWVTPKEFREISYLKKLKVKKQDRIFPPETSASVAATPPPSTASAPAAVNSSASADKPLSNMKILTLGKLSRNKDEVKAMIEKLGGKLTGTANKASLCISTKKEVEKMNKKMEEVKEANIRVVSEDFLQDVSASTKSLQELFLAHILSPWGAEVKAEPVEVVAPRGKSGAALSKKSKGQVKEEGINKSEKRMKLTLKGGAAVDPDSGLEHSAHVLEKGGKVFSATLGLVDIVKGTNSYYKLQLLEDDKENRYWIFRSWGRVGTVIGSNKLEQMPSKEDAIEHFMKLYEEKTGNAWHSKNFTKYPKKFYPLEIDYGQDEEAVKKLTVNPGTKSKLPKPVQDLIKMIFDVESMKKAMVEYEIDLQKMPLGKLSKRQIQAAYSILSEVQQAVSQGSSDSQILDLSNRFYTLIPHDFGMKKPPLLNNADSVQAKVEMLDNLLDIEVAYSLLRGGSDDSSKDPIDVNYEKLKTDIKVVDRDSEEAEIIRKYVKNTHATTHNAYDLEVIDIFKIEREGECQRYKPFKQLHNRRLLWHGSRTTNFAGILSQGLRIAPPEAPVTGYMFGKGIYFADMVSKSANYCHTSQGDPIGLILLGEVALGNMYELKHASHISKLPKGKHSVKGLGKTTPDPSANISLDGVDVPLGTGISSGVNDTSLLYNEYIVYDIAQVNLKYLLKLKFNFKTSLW
Description: (§1) The PARP inhibitor assay is a direct fluorescence-based concentration measurement of reaction product formation. The assay reagents are sold as a commercial kit (see http://www.merckmillipore.com/GB/en/product/PARP1-Enzyme-Activity-Assay,MM_NF-17-10149). To measure PARP inhibition, the NAD+ substrate concentration should be set at Km (the Michaelis constant) to enable identifications of all types of inhibitors (competitive, uncompetitive and non-competitive (allosteric) (the latter represents a mode of action of Zn-finger inhibitors)), direct calculation of inhibitor potency (Ki) and in vivo modelling. (See in and literature sited therein: Michael G. Acker, Douglas S. Auld. Considerations for the design and reporting of enzyme assays in high-throughput screening applications. Perspectives in Science (2014) 1, 56-73).
(§2) PARP activity and inhibition was measured for human full length active PARP1 (CS207770, Merck), PARP2 (ab198766, Abeam) and PARP3 (ab79638, Abeam) proteins. Inhibitor compounds (Sodium Aurothiomalate and Aurothioglucose, Sigma-Aldrich and Auranofin, Bio-Techne) at different concentrations (1, 10 and 100 nM, 1, 10 and 100 μM final) were added to the reaction buffer, concocted as a 1:1 mixture of Merck kit buffer with 50 mM Tris-HCl, 100 mM NaCl, 5 mM MgCl2, 0.05% Tween-20, pH 8.0, Sigma), and incubated with PARP1 (2.5 ng/μL final), PARP2 (2.2 ng/μL final) or PARP3 (55 ng/μL final) at room temperature for 30 min.
(§3) Further, activated DNA (2 ng/μL final), […] (60 and 400 μM final for PARP1/2 and PARP3, respectively) and Nicotinamidase (200 ng/μL final) were added and incubated at 37° C. for 45 min. Total reaction volume was 25 μL.
(§4) Controls were executed as follows: • 1. Control of 0% inhibition contained reaction sample without inhibitor; • 2. Control of 100% inhibition of PARP1/2/3 activity contained reaction sample without β-NAD; and • 3. Control of 100% inhibition of DNA-dependent activity contained reaction sample without DNA.
(§5) After the plates were cooled down to room temperature, 25 μL of Merck proprietary reagent was added to the reaction mixture and incubated at mild shaking for 45 min. Fluorescence measurement was carried out at excitation wavelength of 410 nm and emission of 460 nm in Fluostar Omega microplate reader (BMG Labtech).
(§6) Total PARP1/2/3 activity was calculated as a difference between control (1) and control (2). DNA-independent activity was calculated as a difference between control (1) and control (3). DNA-dependent activity was calculated as the difference between the total PARP1/2/3 activity and DNA-independent activity. […] However, potentially up to 30% of PARP1 activity can be DNA-independent.
(§7) Inhibitory values were converted into percentages according to controls. Controls (1) and (3) were used in the case of PARP1, because only inhibition of DNA-dependent activity was observed, and the results are shown in FIG. 2. Controls (1) and (2) were used in the case of PARP2/3, because inhibition of total PARP2/3 activity (both DNA-dependent and DNA-independent reactions) was observed. FIGS. 3 and 4 show the percentage inhibition of PARP1 and PARP2 for different concentrations of aurothiomalate and aurothioglucose, respectively.

[2] = molecular target: T2, human full length active PARP2 (Homo sapiens, UniProt Q9UGN5); assay: PARP inhibitor assay, fluorescence-based, PARP2; format: biochemical
T2 construct: human full length active PARP1 (CS207770, Merck), PARP2 (ab198766, Abeam); purchased Abcam ab198766
T2 sequence (Q9UGN5 whole entry): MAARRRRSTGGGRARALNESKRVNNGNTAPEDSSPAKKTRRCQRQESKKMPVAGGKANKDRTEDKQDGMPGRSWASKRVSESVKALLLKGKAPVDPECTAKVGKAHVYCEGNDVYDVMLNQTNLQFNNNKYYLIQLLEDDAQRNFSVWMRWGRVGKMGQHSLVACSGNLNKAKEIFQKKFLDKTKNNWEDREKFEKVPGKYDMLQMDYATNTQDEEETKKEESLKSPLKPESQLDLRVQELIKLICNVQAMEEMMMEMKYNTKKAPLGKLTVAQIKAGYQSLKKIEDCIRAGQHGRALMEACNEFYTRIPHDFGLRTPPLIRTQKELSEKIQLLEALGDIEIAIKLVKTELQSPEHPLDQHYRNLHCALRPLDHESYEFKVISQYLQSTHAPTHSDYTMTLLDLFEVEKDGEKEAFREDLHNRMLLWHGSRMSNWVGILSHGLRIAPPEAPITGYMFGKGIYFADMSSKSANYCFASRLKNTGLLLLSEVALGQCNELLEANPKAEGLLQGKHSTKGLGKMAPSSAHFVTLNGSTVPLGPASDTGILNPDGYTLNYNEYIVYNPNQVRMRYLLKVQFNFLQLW
Description: as §1, §2, §3, §4, §5, §6, §7

[3] = molecular target: T3, human full length active PARP3 (Homo sapiens, UniProt Q9Y6F1); assay: PARP inhibitor assay, fluorescence-based, PARP3; format: biochemical; conditions: for IC50: inhibition of total PARP3 activity (controls 1 and 2), 400 μM β-NAD
T3 construct: human full length active PARP1 (CS207770, Merck), PARP2 (ab198766, Abeam) and PARP3 (ab79638, Abeam) proteins; purchased Abcam ab79638
T3 sequence (Q9Y6F1 1-533): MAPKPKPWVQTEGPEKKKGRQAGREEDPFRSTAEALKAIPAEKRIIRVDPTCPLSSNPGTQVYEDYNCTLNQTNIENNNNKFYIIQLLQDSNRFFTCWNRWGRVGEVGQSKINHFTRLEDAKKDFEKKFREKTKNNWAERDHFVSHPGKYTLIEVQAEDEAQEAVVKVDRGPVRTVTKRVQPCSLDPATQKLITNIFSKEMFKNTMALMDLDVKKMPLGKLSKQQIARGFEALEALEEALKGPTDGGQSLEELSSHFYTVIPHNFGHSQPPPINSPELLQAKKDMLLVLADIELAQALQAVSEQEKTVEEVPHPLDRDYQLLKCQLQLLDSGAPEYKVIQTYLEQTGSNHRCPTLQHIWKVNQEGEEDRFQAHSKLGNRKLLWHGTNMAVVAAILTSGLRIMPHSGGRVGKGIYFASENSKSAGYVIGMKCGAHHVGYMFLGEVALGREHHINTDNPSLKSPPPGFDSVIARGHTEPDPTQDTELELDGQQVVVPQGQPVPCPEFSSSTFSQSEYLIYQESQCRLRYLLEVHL
Description: as §1, §2, §3, §4, §5, §6
Inhibitory values were converted into percentages according to controls. […]

[4] = system: rats fed a high adenine/low protein diet (chronic kidney disease); assay: Bone density in rat model on high adenine/low protein diet (CKD), SEM/TEM of long limb bone cross sections; format: in vivo; conditions: 50 mg/kg/day for 6 weeks; cortical area of long limb bone cross section; vs control and untreated CKD-diet rats; FIG. 8b
Method: The effects of minocycline on bone calcification processes were evaluated in an in vivo rat model. The rats were fed a high adenine/low protein diet in order to develop chronic kidney disease (CKD) and associated hyperphosphatemia and medial vascular calcification. It is also expected to cause increased rates of bone turnover, allowing the inventors to examine whether inhibition of PARP2 enzymatic activity during bone remodelling affected mineralization. 14 of the rats on the high adenine/low protein diet were treated with 50 mg/kg/day of minocycline for 6 weeks. At the end of the study period cross sections of the long limb bone were analysed using scanning electron microscopy (SEM) and transmission electron microscopy (TEM), see FIG. 7, and the area fraction of solid bone in the cortical area of the bone cross section was quantified from these images, see FIG. 8. Statistical significance was determined by Mann-Whitney test.

[5] = inhibition of DNA-dependent activity (controls 1 and 3), 60 μM β-NAD, activated DNA, read-out: IC50 PARP1
[6] = inhibition of total PARP2 activity (controls 1 and 2), 60 μM β-NAD, read-out: IC50 PARP2

| Molecule | PARP1 inhibition (in words) ([1]; FIG. 2 and Table 1) | IC50 [1, 5] | PARP2 inhibition (in words) [2] | IC50 [2, 6] | DNA-independent PARP1 activity in the presence of the compound [1] | IC50 [1] | PARP3 inhibition (in words) [3] | IC50 [3] | IC50 ([1]; assay of Example 1, FIG. 6, read-out: IC50 PARP1) | IC50 [2] | PARP2 vs PARP1 selectivity factor ([2]; ratio of PARP1 and PARP2 IC50) | reduction in the area fraction of solid bone [4] |
| --- | --- | --- | --- | --- | --- | --- | --- | --- | --- | --- | --- | --- |
| CC(=O)OC[C@H]1O[C@@H]([S-])[C@H](OC(C)=O)[C@@H](OC(C)=O)[C@@H]1OC(C)=O.CCP(CC)CC.[Au+] [Auranofin] | only inhibits PARP1 and PARP2 at very high concentrations | 1400 ± 98 nM | only inhibits PARP1 and PARP2 at very high concentrations | 1160 ± 81 nM |  |  |  |  |  |  |  |  |
| OC[C@H]1OC([S][Au])[C@H](O)[C@@H](O)[C@@H]1O (some centres unmarked) [Aurothioglucose] |  |  | not inhibited | 4450 ± 623 nM | maintained | 120 ± 7 nM | not inhibited | 1140 ± 20 nM |  |  |  |  |
| CN(C)c1ccc(O)c2c1C[C@H]1C[C@H]3[C@H](N(C)C)C(O)=C(C(N)=O)C(=O)[C@@]3(O)C(O)=C1C2=O [minocycline] |  |  |  |  |  |  |  |  | 204000 nM | 2800 nM | greater than 70 × | 25% |
| Sodium Aurothiomalate |  | 48 ± 7 nM | not inhibited | 1190 ± 190 nM | maintained |  | not inhibited | 1160 ± 93 nM |  |  |  |  |
